Assay results reported in patent publication US20230382915A1, “GCN2 AND PERK KINASE INHIBITORS AND METHODS OF USE THEREOF” (Deciphera Pharmaceuticals, LLC, priority 2021, published 2023).

What was measured:
Format in all cases: cell-based
[1] = tested on: H358 solid tumor spheroids; assay: Spheroid proliferation assay, H358
Procedure: Non Small Cell Lung Cancer (NSCLC) cell lines H358 (catalog #CRL-5807) and H2030 (catalog #CRL-5914), and fibrosarcoma line HT-1080 (catalog […]) were obtained from the American Type Culture Collect (ATTC, Manassas, VA). Cells were grown in RPMI-1640 medium supplemented with 10% heat-inactivated fetal bovine serum and 1% Penicillin/Streptomycin/L-Glutamine (Invitrogen, Carlsbad, CA) at 37° C., 5% CO2, and 95% humidity and maintained at 50-80% confluency until use. 500-1000 cells were plated in 96-well ultra-low attachment plates (Corning, Glendale, AZ) with complete growth media at 80 μL/well and incubated overnight at 37° C., 5% CO2, and 95% humidity to form spheroids. The next day, serial dilutions of test compounds were prepared in complete growth media and 20 μL/well media containing compound titers was added to spheroids in triplicate. Spheroids were then incubated with test compounds for 5 days under the same conditions. At the end of the incubation, spheroids were lysed with 100 μL/well CellTiter-Glo 3D Viability Assay (Promega, Madison, WI) and luminescence was detected using Synergy2 or equivalent reader (Biotek, Winooski, VT). Data was analyzed using GraphPad Prism software (GraphPad, San Diego, CA) to calculate IC50 values.

[2] = tested on: HT-1080 cell line with GCN2 or PERK knockdown; assay: HT-1080 shRNA knockdown assay
Procedure: Fibrosarcoma cell line HT-1080 (catalog […]) was obtained from the American Type Culture Collect (ATTC, Manassas, VA). Cells were grown in RPMI-1640 medium supplemented with 10% heat-inactivated fetal bovine serum and 1% Penicillin/Streptomycin/L-Glutamine (Invitrogen, Carlsbad, CA) at 37° C., 5% CO2, and 95% humidity and maintained at 50-80% confluency until use. shRNAs-expressing constructs targeting PERK, GCN2 or scrambled control were obtained from MISSION (Sigma, St. Louis, MO) and lentiviruses containing each construct were produced in-house. Cells were plated at 400,000 cells/well in 6-well tissue culture plates (ThermoFisher Scientific, Waltham, MA) with complete growth media and incubated overnight at 37° C., 5% CO2, and 95% humidity to attach. The next day, existing media was removed from each well and replenished with 1 mL/well fresh media containing 5 μg/mL polybrene (VectorBuilder, Chicago, IL). Cells were transduced with 200 μL/well corresponding lentivirus for 24 hours before being processed for western blot and cell proliferation assays.

[3] = tested on: H929 Multiple Myeloma cells; assay: Cell proliferation, combination with standard of care, H929; settings: Homo sapiens, NCI-H929; with 3 nM bortezomib, 96 h, FIG. 6B; read-out: inhibition of cell proliferation IC50, combination treatment
Procedure: H929, RPMI8226, GA-10 and DoHH-2 cells (catalog #CRL-9068) were obtained from the American Type Culture Collection (ATTC, Manassas, VA). H929 Cells were maintained in RPMI-1640 medium supplemented with 20% heat-inactivated fetal bovine serum (catalog #A3840002, ThermoFisher Scientific, Waltham, MA), 1% Penicillin/Streptomycin/L-Glutamine (catalog #10378016, ThermoFisher Scientific, Waltham, MA), and 0.05 mM 2-mercaptoethanol (catalog #21985-023, ThermoFisher Scientific, Waltham, MA). […]
For cell proliferation assay appropriate number of cells (Forty thousand cells for H929. Twenty thousand cells for RPMI8226 and GA-10. Eight thousand cells for DoHH-2) were seeded per well in 200 μL in respective medium were dispensed into a 96-well black clear bottom plate. […] Plates were read on a Synergy2 or equivalent reader (Biotek, Winooski VT) using an excitation of 540 nm and an emission of 600 nm. At the end of the incubation of DoHH-2, cell viability was determined using CellTiter-Glo® assay (Promega, Madison, WI). Luminescence was measured using EnVision MultiLabel Reader (PerkinElmer, Waltham, MA). Data was analyzed using GraphPad Prism software (GraphPad, San Diego, CA) to calculate IC50 values.

Cn1cc(-c2cccc(NS(=O)(=O)c3cc(Cl)cc(CO)c3Cl)c2F)c2c(N)ncnc21 [Example 2, N-(3-(4-amino-7-methyl-7H-pyrrolo[2,3-d]pyrimidin-5-yl)-2-fluorophenyl)-2,5-dichloro-3-(hydroxymethyl)benzenesulfonamide]
IC50 ([1]; Homo sapiens, NCI-H358, 120 h, 5 days, FIG. 11B, read-out: inhibition of cell proliferation IC50, single agent): 10 nM
spheroid growth, combination treatment ([1]; with 3.3 nM sotorasib, 96 h, FIG. 12B): greater spheroid regression compared to either single agent
compound-mediated spheroid growth inhibition upon knockdown ([2]; FIG. 13C): attenuated upon knockdown of GCN2 but not PERK
reduction of compound-mediated upregulation of ATF4 ([2]; upon knockdown of GCN2, FIG. 13B): 75%
reduction of compound-mediated upregulation of ATF4 ([2]; upon knockdown of PERK, FIG. 13B): 50%
IC50 [3]: 6 nM
